Where a SMILES comes first, the peptide text is derived from it.
Experiments:
[1] = target: T1, Aminopeptidase N from porcine kidney (Sus scrofa, UniProt P15145); assay: Inhibitory activity of SEDDS and excipients towards isolated aminopeptidase N; assay type: biochemical; settings: excipient (caprylic acid 20 µL or citronellol 10 µL) solubilized with 20 µL PEG-35 castor oil in HBS pH 6.5, 500 µL; 500 µL of 41.6 mU/mL enzyme; 5 mM L-Leucine-4-nitroanilide; 1 h, 37 °C, 400 rpm; n ≥ 3
T1 construct: purchased Merck KGaA (Darmstadt, Germany); host or cells: porcine kidney (tissue-derived enzyme suspension)
T1 sequence (P15145 1-963): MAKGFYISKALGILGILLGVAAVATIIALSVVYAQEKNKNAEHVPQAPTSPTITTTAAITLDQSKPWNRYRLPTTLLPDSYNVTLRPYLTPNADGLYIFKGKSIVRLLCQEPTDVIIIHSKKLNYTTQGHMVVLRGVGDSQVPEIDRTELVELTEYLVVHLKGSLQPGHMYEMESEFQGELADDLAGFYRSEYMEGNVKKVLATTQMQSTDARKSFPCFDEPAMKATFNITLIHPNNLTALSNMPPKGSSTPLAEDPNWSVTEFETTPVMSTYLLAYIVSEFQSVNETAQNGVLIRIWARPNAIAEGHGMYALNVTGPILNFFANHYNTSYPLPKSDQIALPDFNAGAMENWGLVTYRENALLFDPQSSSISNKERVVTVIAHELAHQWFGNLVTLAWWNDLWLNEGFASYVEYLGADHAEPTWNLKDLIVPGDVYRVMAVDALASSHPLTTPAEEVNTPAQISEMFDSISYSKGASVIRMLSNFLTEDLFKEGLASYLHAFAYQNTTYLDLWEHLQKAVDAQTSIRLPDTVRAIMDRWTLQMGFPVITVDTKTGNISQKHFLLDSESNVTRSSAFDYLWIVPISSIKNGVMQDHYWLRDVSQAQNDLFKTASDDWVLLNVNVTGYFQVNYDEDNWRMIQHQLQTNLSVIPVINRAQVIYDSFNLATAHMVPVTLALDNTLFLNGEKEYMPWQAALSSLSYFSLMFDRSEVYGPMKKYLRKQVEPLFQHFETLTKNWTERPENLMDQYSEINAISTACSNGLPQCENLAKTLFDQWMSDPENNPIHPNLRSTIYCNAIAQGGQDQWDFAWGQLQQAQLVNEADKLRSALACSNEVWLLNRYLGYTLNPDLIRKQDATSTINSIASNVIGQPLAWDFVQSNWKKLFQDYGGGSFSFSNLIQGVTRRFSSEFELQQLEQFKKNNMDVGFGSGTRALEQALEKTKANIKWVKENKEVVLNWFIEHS
Procedure: Furthermore, a possible inhibitory effect of SEDDS and excipients on aminopeptidase N activity was investigated using the isolated enzyme, following a method previously described with slight modifications [28]. Surfactant solutions were prepared in 20 mM HBS pH 6.5 in the same concentration as they are present in SEDDS. Either 5% (v/v) SEDDS or surfactant solution were mixed in 500 µL together with further 500 µL of a 41.6 mU/mL enzyme solution in 20 mM HBS pH 6.5. L-Leucine- 4-nitroanilide was added prior to SEDDS and surfactant solution in a final concentration of 5 mM.
A 5 mM substrate solution served as the positive control, representing 100% enzyme activity. The samples were incubated on a thermomixer for 1 h at 37 °C and 400 rpm agitation. To stop the enzymatic reaction, 1 mL of methanol containing 2% (v/v) TFA were added to each sample. After centrifugation at 12,500 rpm, the concentration of 4-nitroaniline in the supernatant was quantified. The inhibitory activity was calculated using the following Eq. (5):5 Inhibitoryactivity[%]=100-Abssample/Abspositivecontrol×100

[2] = target: T2, membrane-bound aminopeptidase N on rat intestinal mucosa (Rattus norvegicus, UniProt P15684)
T2 sequence (P15684 1-965): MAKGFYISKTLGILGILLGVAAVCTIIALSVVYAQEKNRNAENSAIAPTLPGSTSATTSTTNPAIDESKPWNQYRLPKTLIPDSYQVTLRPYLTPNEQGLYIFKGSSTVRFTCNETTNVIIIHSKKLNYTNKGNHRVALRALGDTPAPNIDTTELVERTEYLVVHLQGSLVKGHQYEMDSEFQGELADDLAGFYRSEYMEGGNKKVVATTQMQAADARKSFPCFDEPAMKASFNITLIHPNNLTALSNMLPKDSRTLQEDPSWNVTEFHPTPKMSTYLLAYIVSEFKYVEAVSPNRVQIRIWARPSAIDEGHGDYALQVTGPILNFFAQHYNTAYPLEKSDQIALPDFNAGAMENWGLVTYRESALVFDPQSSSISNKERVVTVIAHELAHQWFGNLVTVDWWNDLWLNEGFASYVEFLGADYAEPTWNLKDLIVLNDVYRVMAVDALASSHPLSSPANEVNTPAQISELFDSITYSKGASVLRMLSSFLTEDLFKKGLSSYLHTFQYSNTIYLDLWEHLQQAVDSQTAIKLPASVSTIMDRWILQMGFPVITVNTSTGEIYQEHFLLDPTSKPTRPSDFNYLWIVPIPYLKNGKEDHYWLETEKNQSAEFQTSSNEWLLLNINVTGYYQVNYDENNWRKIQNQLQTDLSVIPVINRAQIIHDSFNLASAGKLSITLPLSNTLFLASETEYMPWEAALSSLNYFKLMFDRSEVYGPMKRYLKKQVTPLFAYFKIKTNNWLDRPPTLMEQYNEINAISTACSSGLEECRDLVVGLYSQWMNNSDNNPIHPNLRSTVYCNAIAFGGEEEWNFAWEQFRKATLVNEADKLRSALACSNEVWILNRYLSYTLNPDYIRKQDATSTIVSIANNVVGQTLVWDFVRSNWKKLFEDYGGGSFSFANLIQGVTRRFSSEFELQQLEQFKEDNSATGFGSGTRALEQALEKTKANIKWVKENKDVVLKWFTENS
Procedure: Rat intestine was obtained freshly from male Sprague–Dawley rats (200–300 g) supplied by Janvier Labs (Saint Berthevin, France). The middle section of the small intestine was longitudinally dissected and thoroughly washed with HBS pH 6.5 to remove intestinal contents. The intestine was stored at − 20 °C in HBS until further use.
After thawing the small intestine was cut into 1 × 1 cm pieces that were placed in tubes containing 500 µL of HBS. SEDDS with dissolved HIP were emulsified in a concentration of 10% (v/v) in HBS. 500 µL of nanoemulsions were added to each tube to obtain a final concentration of 5% (v/v) SEDDS. Thereafter, samples were incubated on a thermomixer at 37 °C with continuous agitation at 400 rpm. Over a 4 h time period, 100 µL aliquots were withdrawn from each sample at predefined time intervals. To terminate the enzymatic reaction, an equal volume of methanol containing 2% (v/v) TFA was added to each aliquot. Subsequently, the concentration of tuftsin in the supernatant was quantified using HPLC.

[3] = pH 6.5
Procedure: The rat intestine was carefully cleaned to remove its intestinal contents and then cut into 1.5 cm sections. These sections were fixed in Ussing chambers with a surface area of 0.64 cm^2 and 1 mL of 20 mM HBS pH 6.5 was added to each acceptor chamber, while the donor chambers were filled with 1 mL of 5% (v/v) SEDDS in 20 mM HBS pH 6.5, facing the luminal side of the intestine.
The Ussing chambers were incubated in a water bath at 37 °C, and every 1 h, 100 µL aliquots were withdrawn from the acceptor chambers over a 4 h period. Withdrawn samples were replaced with pre-warmed HBS to maintain sink conditions. The concentration of permeated tuftsin in the collected aliquots was determined via HPLC and the apparent permeability coefficient [30]was subsequently calculated using the following Eq. (6):6 Papp[cms^-1]=Q[μg]/Acm^2cμgmL^-1t[s] where Papp is the apparent permeability coefficient, Q is the total amount of test substance permeated through the mucosa, A is the diffusion area of the Ussing chamber system, c is the initial concentration of tuftsin in the donor compartment and t is the total time of experiment.

CC(C)=CCCC(C)CCO (stereo not shown) [citronellol]
Inhibitory activity of single SEDDS-3 excipients towards aminopeptidase N [1]: 18%

C[C@@H](O)[C@H](N)C(=O)N[C@@H](CCCCN)C(=O)N1CCC[C@H]1C(=O)N[C@@H](CCCNC(=N)N)C(=O)O [tuftsin, Tuftsin] (H-TKPR-OH)
Time to entire degradation of the unformulated peptide (abstract) [2]: ≤ 20 min | Apparent permeability coefficient (Papp) of tuftsin [3]: 0.8 × 10^–5 cm/s | Tuftsin permeated after 4 h of cumulative permeation (% of initial tuftsin) [3]: 7%
